The source of these data is patent US20250090510A1, “eIF4G1-eIF1 INHIBITORS AND USE THEREOF” (YEDA RESEARCH AND DEVELOPMENT CO. LTD., priority 2022, published 2025).

Molecules are shown by their SMILES. pIC50: −log10 of the molar value.

The test system of this experiment is HEK293T cells. Description: Puromycin labeling (puromycin-incorporation assay). The note with it: Homo sapiens, HEK-293T; 3 h treatment, puromycin 10 μg/ml 5 minutes; read-out: IC-50, nascent polypeptide puromycin labeling. The format is cell-based. On the procedure:
FIGS. 3A-F: i14G1-10 and i14G1-12 inhibit mRNA translation and sensitize cell survival of eIF4G1 and eIF1 depleted cells. (3A) In-vitro translation using rabbit reticulocyte lysate which was pre-incubated with different concentrations of i14G1-10 or i14G1-12 for 10 minutes followed by the addition of capped firefly luciferase mRNA. After 90 minutes at 30° C., the luminescence signal was measured and the IC50 was calculated. The data represents mean±SEM of 6 independent repeats. (3B) HEK293T cells were treated with DMSO (vehicle control), and sub-cytotoxic concentrations of i14G1-10 (20 μM) and i14G1-12 (10 μM) for 3h. Cell lysates were then subjected to sucrose gradient sedimentation to obtain polysome profiles. (3C) HEK293T cells were treated with the indicated concentrations of i14G1-10 and i14G-12 for 3 h, followed by the addition of puromycin (10 μg/ml) for 5 minutes, after which cells were lysed and analyzed by western blot using an anti-puromycin antibody and anti-GAPDH antibody that serves as a loading control. […] The calculated IC-50 is shown. […] The calculated IC-50 is shown. (3E) The graphs represent cell viability of the indicated cell lines in the presence of increasing concentrations of i14G1-10 and i14G1, analyzed by Luminescent Cell Viability Assay. […]

As to `Cn1ccnc1S/C(=C/C=C(C#N)C#N)c1ccc(Cl)cc1` [i14G1-12], the pIC50 is 5.30.

For `O=C(/C=C/Sc1ccc(C(F)(F)F)cn1)c1ccccc1` [i14G1-10], the pIC50 was 4.69.
